Marks after values point to notes of the source that are not given here.
What was measured:
[1] = Photocatalytic degradation of indoxacarb under UV light; assay type: physicochemical
[2] = Photo degradation of indoxacarb in the batch reactor under natural light
[3] = test system: newly-ecdysed fifth instar larvae of G. pyloalis; assay: Leaf dip bioassay; assay type: in vivo, Glyphodes pyloalis Walker; conditions: for mortality at 50 ppm / mortality at 80 ppm / mortality at 126 ppm / mortality at 200 ppm / mortality at 316 ppm / mortality at 500 ppm: Glyphodes pyloalis, foliar
Protocol: (§1) The insects used in the present application is Glyphodes pyloalis Walker (Lepidoptera: Pyralidae) which was collected from infested mulberry orchards in the vicinity of Rasht, Iran. Mass rearing of insects was carried out in the laboratory under controlled conditions at 25±1° C., 70±5% RH and 16:8 L:D. Newly-ecdysed fifth instar larvae of G. pyloalis were used for the bioassay experiments. The Glyphodes pyloalis Walker hereinafter is referred to as G. pyloalis.
The toxicity of the encapsulated imidacloprid diluted in water for the newly-ecdysed fifth instar larvae of G. pyloalis was evaluated using leaf dip bioassay. The technical imidacloprid was dissolved in acetone and diluted to generate 6 serial dilutions with distilled water. Mulberry leaf discs with diameters of 3.5 cm were prepared, so that each petiole was placed in a vial containing water for providing moisture to the leaf discs for several days. These discs were then immersed in the dilutions for 45 seconds. Mortality was assessed after the treated larvae were maintained at 25±1° C., 70±10 R.H. for 24, 48, 72, 96 and 120 hours.

[4] = test system: newly ecdysed fifth instar larvae of G. pyloalis; assay: Topical bioassay; assay type: in vivo, Glyphodes pyloalis Walker; conditions: Glyphodes pyloalis
Protocol: as §1
To determine the efficacy of the encapsulated nano-IMI prepared using ethanol, a topical bioassay was performed. In the preliminary tests, 5 concentrations of bulk and nano-IMI were tested. […] Fifty larvae per concentration were used for all experiments and each experiment was replicated 4 times; 1 μl of the desired concentration was topically applied to the metathoracic tergum. The controls received 1 μl of ethanol in the same way. The treated larvae were allowed to eat fresh leaves. After 24, 48, 72 and 96 h, the numbers of dead larvae were recorded.

## COC(=O)N(C(=O)N1CO[C@@]2(C(=O)OC)Cc3cc(Cl)ccc3C2=N1)c1ccc(OC(F)(F)F)cc1 [Indoxacarb, lndoxacarb]
[1]; 10 ppm, 1 h
  % degradation of indoxacarb: 2.3%
[1]; 10 ppm, 3 h
  % degradation of indoxacarb: 7.44%
[1]; 10 ppm, 6 h
  % degradation of indoxacarb: 10.26%
[1]; 10 ppm, 18 h
  % degradation of indoxacarb: 13.07%
[1]; 20 ppm, 1 h
  % degradation of indoxacarb: 6.24%
[1]; 20 ppm, 3 h
  % degradation of indoxacarb: 12.49%
[1]; 20 ppm, 6 h
  % degradation of indoxacarb: 18.9%
[1]; 20 ppm, 18 h
  % degradation of indoxacarb: 22.03%
[1]; 30 ppm, 1 h
  % degradation of indoxacarb: 9.32%
[1]; 30 ppm, 3 h
  % degradation of indoxacarb: 13.07%
[1]; 30 ppm, 6 h
  % degradation of indoxacarb: 23.34%
[1]; 30 ppm, 18 h
  % degradation of indoxacarb: 25.21%
[1]; 40 ppm, 1 h
  % degradation of indoxacarb: 11.47%
[1]; 40 ppm, 3 h
  % degradation of indoxacarb: 15.04%
[1]; 40 ppm, 6 h
  % degradation of indoxacarb: 24.26%
[1]; 40 ppm, 18 h
  % degradation of indoxacarb: 25.39%
[1]; 50 ppm, 1 h
  % degradation of indoxacarb: 9.23%
[1]; 50 ppm, 3 h
  % degradation of indoxacarb: 13.34%
[1]; 50 ppm, 6 h
  % degradation of indoxacarb: 21.02%
[1]; 50 ppm, 18 h
  % degradation of indoxacarb: 21.02%
[1]; after approximately 18 h, over all concentrations (10-50 ppm)
  maximum amount of indoxacarb removed / degraded: about 25%
[2]; 10 ppm, 2 d
  % photo degradation of indoxacarb: 16.33%
[2]; 10 ppm, 4 d
  % photo degradation of indoxacarb: 19.02%
[2]; 10 ppm, 6 d
  % photo degradation of indoxacarb: 21.21%
[2]; 10 ppm, 8 d
  % photo degradation of indoxacarb: 23.4%
[2]; 10 ppm, 10 d
  % photo degradation of indoxacarb: 30.47%
[2]; 20 ppm, 2 d
  % photo degradation of indoxacarb: 22.26%
[2]; 20 ppm, 4 d
  % photo degradation of indoxacarb: 23.47%
[2]; 20 ppm, 6 d
  % photo degradation of indoxacarb: 25.17%
[2]; 20 ppm, 8 d
  % photo degradation of indoxacarb: 29.28%
[2]; 20 ppm, 10 d
  % photo degradation of indoxacarb: 33.4%
[2]; 30 ppm, 2 d
  % photo degradation of indoxacarb: 26.23%
[2]; 30 ppm, 4 d
  % photo degradation of indoxacarb: 29.2%
[2]; 30 ppm, 6 d
  % photo degradation of indoxacarb: 31.18%
[2]; 30 ppm, 8 d
  % photo degradation of indoxacarb: 33.16%
[2]; 30 ppm, 10 d
  % photo degradation of indoxacarb: 36.13%
[2]; 40 ppm, 2 d
  % photo degradation of indoxacarb: 22.26%
[2]; 40 ppm, 4 d
  % photo degradation of indoxacarb: 29.28%
[2]; 40 ppm, 6 d
  % photo degradation of indoxacarb: 31.34%
[2]; 40 ppm, 8 d
  % photo degradation of indoxacarb: 36.3%
[2]; 40 ppm, 10 d
  % photo degradation of indoxacarb: 39.21%
[2]; 50 ppm, 2 d
  % photo degradation of indoxacarb: 21.23%
[2]; 50 ppm, 4 d
  % photo degradation of indoxacarb: 26.35%
[2]; 50 ppm, 6 d
  % photo degradation of indoxacarb: 30.18%
[2]; 50 ppm, 8 d
  % photo degradation of indoxacarb: 32.23%
[2]; 50 ppm, 10 d
  % photo degradation of indoxacarb: 37.38%
[3]; 0.25 ppm, 24 h after treatment
  % mortality: 21 ± 2.91^g %
[3]; 0.25 ppm, 72 h after treatment
  % mortality: 56.4 ± 8.84^bcdef %
[3]; 0.25 ppm, 96 h after treatment
  % mortality: 61 ± 8.73^bcdef %
[3]; 0.25 ppm, 120 h after treatment
  % mortality: 62 ± 7.62^bcdef %
[3]; 0.45 ppm, 24 h after treatment
  % mortality: 34 ± 10.29^efg %
[3]; 0.45 ppm, 48 h after treatment
  % mortality: 47.9 ± 10^cdefg %
[3]; 0.45 ppm, 72 h after treatment
  % mortality: 59 ± 19.97^bcdef %
[3]; 0.45 ppm, 96 h after treatment
  % mortality: 63 ± 12.32^bcdef %
[3]; 0.45 ppm, 120 h after treatment
  % mortality: 64 ± 12.67^bcdef %
[3]; 0.82 ppm, 24 h after treatment
  % mortality: 34.32 ± 7.45^efg %
[3]; 0.82 ppm, 48 h after treatment
  % mortality: 51.5 ± 9.25^cdefg %
[3]; 0.82 ppm, 72 h after treatment
  % mortality: 63.58 ± 7.84^bcdef %
[3]; 0.82 ppm, 96 h after treatment
  % mortality: 76 ± 2.73^abcd %
[3]; 0.82 ppm, 120 h after treatment
  % mortality: 77 ± 2.23^abcd %
[3]; 1.5 ppm, 24 h after treatment
  % mortality: 44.16 ± 8.22^defg %
[3]; 1.5 ppm, 48 h after treatment
  % mortality: 62 ± 2.23^bcdef %
[3]; 1.5 ppm, 72 h after treatment
  % mortality: 74.4 ± 2.58^abcd %
[3]; 1.5 ppm, 96 h after treatment
  % mortality: 83 ± 2.23^abc %
[3]; 1.5 ppm, 120 h after treatment
  % mortality: 83.6 ± 2.07^abc %
[3]; 2.8 ppm, 24 h after treatment
  % mortality: 51.32 ± 8.9^cdefg %
[3]; 2.8 ppm, 48 h after treatment
  % mortality: 68.82 ± 5.05^abcde %
[3]; 2.8 ppm, 72 h after treatment
  % mortality: 76.66 ± 4.27^abcd %
[3]; 2.8 ppm, 96 h after treatment
  % mortality: 88.32 ± 6.55^ab %
[3]; 2.8 ppm, 120 h after treatment
  % mortality: 88.4 ± 6.57^ab %
[3]; 4 ppm, 24 h after treatment
  % mortality: 55 ± 3.87^bcdefg %
[3]; 4 ppm, 48 h after treatment
  % mortality: 71.98 ± 2.92^abcd %
[3]; 4 ppm, 72 h after treatment
  % mortality: 88.32 ± 7.57^ab %
[3]; 4 ppm, 96 h after treatment
  % mortality: 100%
[3]; 4 ppm, 120 h after treatment
  % mortality: 100 ± 0^a %

## O=[N+]([O-])NC1=NCCN1Cc1ccc(Cl)nc1 [Imidacloprid]
[4]; 24 h after treatment
  mortality at 22 ppm: 18.1%
  mortality at 32 ppm: 33%
  mortality at 47.5 ppm: 50%
  mortality at 60 ppm: 76%
[4]; 48 h after treatment
  mortality at 22 ppm: 20%
  mortality at 32 ppm: 35%
  mortality at 47.5 ppm: 52.1%
  mortality at 60 ppm: 78%
[4]; 72 h after treatment
  mortality at 22 ppm: 22%
  mortality at 32 ppm: 36.5%
  mortality at 47.5 ppm: 54%
  mortality at 60 ppm: 80.4%
[4]; 96 h after treatment
  mortality at 22 ppm: 24%
  mortality at 32 ppm: 38.2%
  mortality at 47.5 ppm: 56%
  mortality at 60 ppm: 82%
[3]; 24 h after treatment
  mortality at 50 ppm: 2.5 ± 2%
  mortality at 80 ppm: 8.82%
  mortality at 126 ppm: 21.9 ± 3.07%
  mortality at 200 ppm: 34.2 ± 2.09%
  mortality at 316 ppm: 39.2 ± 4.13%
  mortality at 500 ppm: 57.5 ± 2.04%
[3]; 48 h after treatment
  mortality at 50 ppm: 15.6%
  mortality at 80 ppm: 23.8%
  mortality at 126 ppm: 43.8 ± 2.39%
  mortality at 200 ppm: 55%
  mortality at 316 ppm: 60%
  mortality at 500 ppm: 77.6 ± 4%
[3]; 72 h after treatment
  mortality at 50 ppm: 27%
  mortality at 80 ppm: 39.6 ± 3.33%
  mortality at 126 ppm: 58.6 ± 3.41%
  mortality at 200 ppm: 71.7 ± 2.04%
  mortality at 316 ppm: 75%
  mortality at 500 ppm: 86.1 ± 1.63%
[3]; 96 h after treatment
  mortality at 50 ppm: 42.5%
  mortality at 80 ppm: 57.8 ± 3.17%
  mortality at 126 ppm: 76.2 ± 3.17%
  mortality at 200 ppm: 78.8 ± 2.39%
  mortality at 316 ppm: 84.2 ± 3.37%
  mortality at 500 ppm: 100%
[3]; 120 h after treatment
  mortality at 50 ppm: 46.2 ± 2.39%
  mortality at 80 ppm: 58.8 ± 3.75%
  mortality at 126 ppm: 78.8 ± 3.75%
  mortality at 200 ppm: 80%
  mortality at 316 ppm: 86.2 ± 2.39%
  mortality at 500 ppm: 100%

From US20160000071A1, “PHOTODEGRADABLE, BIOCOMPATIBLE AND EFFICIENT NANO-ENCAPSULATED FORMULATION” (priority 2014, published 2016)
